Results as given in patent US20240254218A1 (ICAHN SCHOOL OF MEDICINE AT MOUNT SINAI, priority 2021, published 2024).

Tests used:
[1] = molecular target: T1, FSH receptor (FSHR) (Homo sapiens, UniProt P23945); conditions: cited from earlier work
T1 sequence (P23945 18-695): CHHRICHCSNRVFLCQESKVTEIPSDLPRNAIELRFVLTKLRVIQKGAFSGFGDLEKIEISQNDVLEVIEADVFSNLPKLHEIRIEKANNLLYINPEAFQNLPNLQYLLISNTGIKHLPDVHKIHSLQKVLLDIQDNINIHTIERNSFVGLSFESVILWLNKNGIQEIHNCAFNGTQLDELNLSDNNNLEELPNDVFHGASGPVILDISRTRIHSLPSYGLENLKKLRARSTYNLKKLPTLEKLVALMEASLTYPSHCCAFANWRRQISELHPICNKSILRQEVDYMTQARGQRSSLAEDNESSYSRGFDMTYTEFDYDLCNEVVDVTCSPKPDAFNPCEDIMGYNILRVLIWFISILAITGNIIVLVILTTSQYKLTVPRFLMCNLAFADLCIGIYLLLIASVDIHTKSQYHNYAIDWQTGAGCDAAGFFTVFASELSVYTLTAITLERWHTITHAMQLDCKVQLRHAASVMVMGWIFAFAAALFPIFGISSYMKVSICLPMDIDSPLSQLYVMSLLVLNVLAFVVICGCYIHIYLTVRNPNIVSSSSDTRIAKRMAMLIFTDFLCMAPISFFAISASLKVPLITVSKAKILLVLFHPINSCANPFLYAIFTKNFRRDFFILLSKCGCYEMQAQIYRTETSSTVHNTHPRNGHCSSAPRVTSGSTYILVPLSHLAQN

[2] = system: FSHR signaling; test: Pathway inhibitors on FSH-induced signalling in SH-SY5Y cells; format: cell-based, human; conditions: FSH 30 ng/ml 30 minutes; for FSH-induced SRPK2 phosphorylation/activation / FSH-induced AEP activation (cleavage and phosphorylation) / FSH-induced C/EBPβ activation/expression: AKTi-1/2 10 μM; for FSH-induced SRPK2 phosphorylation/activation / FSH-induced AEP activation (cleavage and phosphorylation) / FSH-induced C/EBPβ activation/expression / FSH-induced AKT phosphorylation: PD98059 10 μM; for FSH-induced AEP activation (cleavage and phosphorylation) / FSH-induced C/EBPβ activation/expression / FSH-induced AKT phosphorylation: PTX 50 ng/ml
Source text: Of note, MAPK-induced phosphorylation of residue T188 of C/EBPβ regulates its transcriptional activity (Ramji, D. P. & Foka, P. Biochem J 365, 561-575, (2002)). Likewise, AKT phosphorylates SRPK2, which, in turn, activates AEP by phosphorylating residue S266. […] Pertussis toxin inhibited FSH-induced C/EBPβ and AEP activation and AKT phosphorylation (FIG. 2E). […] In contrast, while the MEK1 inhibitor PD98059 blocked FSH-induced C/EBPβ, AEP and SRPK2 activation, AKT was unaffected (FIG. 2E).

Row | Compound | mode of action on the FSH receptor (FSHR) [1] | FSH-induced SRPK2 phosphorylation/activation [2] | FSH-induced AEP activation (cleavage and phosphorylation) [2] | FSH-induced C/EBPβ activation/expression [2] | FSH-induced AKT phosphorylation [2] | effect on any signaling molecule ([2]; SQ22536 100 μM)
1 | COc1ccc(N=Nc2c(S(=O)(=O)[O-])cc3cc(Nc4nc(Cl)nc(N(CCC(N)=O)CCC(N)=O)n4)ccc3c2O)cc1.[Na+] [7-[4-[Bis-(2-carbamoyl-ethyl)-amino]-6-chloro-(1,3,5)-triazin-2-ylamino)-4-hydroxy-3-(4-methoxy-phenylazo)-naphthalene]-2-sulfonic acid, sodium salt] | selective, noncompetitive inhibitor | – | – | – | – | –
2 | O=c1[nH]c2ccccc2n1C1CCN(Cc2ccc(-c3nc4cc5nc[nH]c5cc4nc3-c3ccccc3)cc2)CC1 [AKTi-1/2] | – | attenuated | attenuated | attenuated | – | –
3 | COc1cccc(-c2cc(=O)c3ccccc3o2)c1N [PD98059] | – | blocked | blocked | blocked | unaffected | –
4 | Nc1ncnc2c1ncn2C1CCCO1 (stereo not drawn) [SQ22536] | – | – | – | – | – | Absence of an effect
5 | pertussis toxin | – | – | inhibited | inhibited | inhibited | –
